Measured values taken from US20050042711A1, “Field test for fungi” (GEORGE MASON UNIVERSITY, priority 2003, published 2005).

How the values were obtained:
[1] = test system: bacteria inoculated into the medium; settings: nicotinic acid 0.1 M; three to four days
Protocol: (§1) The base ISTOR medium has the following composition:
(§2) The medium was prepared in potassium phosphate buffer at pH 5.7.

fungi tested = settings: nicotinic acid 0.1 M; three to four days
Protocol: as §1, §2

Structure (SMILES): O=C(O)c1cccnc1 [nicotinic acid]
- growth of bacteria [1]: none of the bacteria inoculated into the medium grew
- growth of fungi (fungi tested): all of the fungi tested exhibited growth
- solubility in water: not very soluble in water
